# Experimental data taken from patent EP3685668B1, “COMPOSITION COMPRISING ACIBENZOLAR-S-METHYL AS EFFECTIVE INGREDIENT FOR CONTROLLING BURSAPHELENCHUS XYLOPHILUS DISEASE AND METHOD FOR CONTROLLING BURSAPHELENCHUS XYLOPHILUS USING SAME” (Industry Foundation of Chonnam National University, priority 2017, dated 2019).
# Tests used:
# PR_3 family class 1 = experiment: qRT-PCR expression of induced resistance gene in pine tree callus; type: cell-based; conditions: for Expression of induced resistance gene, PR_3 family class 1: 24 hours
# PR_1b family = experiment: as above; type: cell-based; conditions: 200 µg/mℓ; for Expression of induced resistance gene, PR_1b family: 24 hours
# Summary of the method: (§1)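 Pine callus (100 mg) in LM liquid medium treated with candidate inducers at 200 µg/mℓ final, applied to the surface or sprayed, shaken 50 rpm at 25 °C in the dark for 24 h (acibenzolar-S-methyl also 1, 7 or 14 days). Gene expression by qRT-PCR on callus RNA, with elongation factor_1 alpha as reference.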
# PR_9 family = experiment: as above; type: cell-based; conditions: for Expression of induced resistance gene, PR_9 family: 24 hours
# Summary of the method: as §1
# Xyloglucan = experiment: as above; type: cell-based; conditions: 200 µg/mℓ; for Expression of induced resistance gene, Xyloglucan: 24 hours
# PR_3 family class 4 = experiment: as above; type: cell-based; conditions: for Expression of induced resistance gene, PR_3 family class 4: 24 hours
# Summary of the method: as §1
# Heat shock 70 = experiment: as above; type: cell-based; conditions: for Expression of induced resistance gene, Heat shock 70: 24 hours
# PR_5 family = experiment: as above; type: cell-based; conditions: for Expression of induced resistance gene, PR_5 family: 24 hours
# Summary of the method: as §1
# PR_10 family = experiment: as above; type: cell-based; conditions: for Expression of induced resistance gene, PR_10 family: 24 hours
# Summary of the method: as §1
# [1] = test system: Bursaphelenchus xylophilus; experiment: Occurrence of pine wilt disease after trunk injection of induced resistance candidate materials, in vivo test in young red pine trees; conditions: red pine tree (Pinus densiflora), 30 days after inoculation; for Occurrence rate of pine wilt disease: Number of pine trees showing wilt symptoms / Number of pine trees used for the test: trunk injection 100 µℓ per tree; for Number of pine trees showing wilt symptoms only at growing points of a stem: trunk injection
# Summary of the method: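 Two-year-old Pinus densiflora seedlings received 100 µℓ trunk injection of elicitor at 200, 20 or 2 µg/mℓ, 5–10 cm above soil. One week later, 2,000 Botrytis-reared nematodes were bark-inoculated per tree; disease occurrence scored 30 days post-inoculation.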
# [2] = test system: induced resistance-related genes; experiment: qRT-PCR expression of induced resistance genes in pine tree callus, overall statement; type: cell-based; conditions: 200 µg/mℓ
# Protocol: For in vitro analysis of induced resistance, the expression of PR genes and other plant defense-related genes was determined, which are evolved in various defense mechanisms including induced resistance. The primers of sixteen induced resistance-related genes of pine tree used in this invention were listed in the below and elongation factor_1 alpha were used as a reference gene. [Table 4] The primer list of defense resistance-related genes
# After the treatment with 200 µg / mℓ of candidates of the selected induced resistance material, expression of the induced resistance-related gene in pine callus was determined by qRT-PCR using the primer pairs of defense resistance-related genes in Table 4. As a candidate group of an induced resistance material in pine tree, acibenzolar-S-methyl (ASM), TDL (Tiadinil), ITL (Isotianil), PBZ (Probenzole), AZO (Azoxystrobin), VMA (Validamycin A), MeJA (Methyl jasmonate), BABA (DL-3-aminobutyric acid), 2,3-BDO (2,3-Butanediol), GABA (r-Aminobutyric acid), glucan (Glucan), ER (Ergosterol), and AZA (Azelaic acid) were used. For the in vitro analysis of the expression of induced resistance gene in pine callus, the selected induced resistance materials were applied with 500 µℓ of LM liquid medium on a surface of pine tree callus (100 mg) in 12-well microplate to give final concentration of 200 µg/mℓ. Then, the callus surface was sufficiently reacted for 24 hours with the candidate of pine tree induced resistance material by shaking at 50 rpm in a 25 °C shaking incubator under dark condition. RNAs were extracted from the callus after completion of the reaction with an induced resistance material, followed by synthesis of cDNAs. Then, by carrying out qRT-PCR, the expression of induced resistance genes was determined. [Table 5] Expression of induced resistance gene in pine tree callus by TDL, PBZ, ASM, ITL, AZO, VMA, glucan, and AZA
# Antipeptide = experiment: qRT-PCR expression of induced resistance gene in pine tree callus; type: cell-based; conditions: concentration series
# [3] = 200 µg/mℓ, Direct supplying as a medium component
# [4] = concentration series, 200 µg/mℓ
# [5] = Direct supplying as a medium component
smiles,measurement,setting,value
"CSC(=O)c1cccc2nnsc12 [ASM, acibenzolar-S-methyl]","Expression of induced resistance gene, PR_3 family class 1",PR_3 family class 1; 200 µg/mℓ,2.04
same,"Expression of induced resistance gene, PR_3 family class 1",PR_3 family class 1; [3],2.85
same,"Expression of induced resistance gene, PR_3 family class 1","PR_3 family class 1; 200 µg/mℓ, Spraying",2.04
same,"Gene expression level, PR_3 family class 1","PR_3 family class 1; 200 µg/mℓ, After 1 day",2.85
same,"Gene expression level, PR_3 family class 1","PR_3 family class 1; 200 µg/mℓ, After 7 days",1.38
same,"Gene expression level, PR_3 family class 1","PR_3 family class 1; 200 µg/mℓ, After 14 days",0.29
same,"Gene expression level, PR_3 family class 1","PR_3 family class 1; concentration series, 20 µg/mℓ",3.506
same,"Gene expression level, PR_3 family class 1",PR_3 family class 1; [4],3.605
same,"Expression of induced resistance gene, PR_1b family",PR_1b family,2
same,"Expression of induced resistance gene, PR_1b family",PR_1b family; [5],6.28
same,"Expression of induced resistance gene, PR_1b family",PR_1b family; Spraying,2
same,"Gene expression level, PR_1b family",PR_1b family; After 1 day,6.28
same,"Gene expression level, PR_1b family",PR_1b family; After 7 days,0.72
same,"Gene expression level, PR_1b family",PR_1b family; After 14 days,0.4
same,"Gene expression level, PR_1b family",PR_1b family; concentration series,0.9395
same,"Expression of induced resistance gene, PR_9 family",PR_9 family; 200 µg/mℓ,2
same,"Expression of induced resistance gene, PR_9 family",PR_9 family; [3],8.57
same,"Expression of induced resistance gene, PR_9 family","PR_9 family; 200 µg/mℓ, Spraying",2
same,"Gene expression level, PR_9 family","PR_9 family; 200 µg/mℓ, After 1 day",1
same,"Gene expression level, PR_9 family","PR_9 family; 200 µg/mℓ, After 7 days",1
same,"Gene expression level, PR_9 family","PR_9 family; 200 µg/mℓ, After 14 days",1
same,"Gene expression level, PR_9 family","PR_9 family; concentration series, 2 µg/mℓ",0.7526
same,"Gene expression level, PR_9 family","PR_9 family; concentration series, 20 µg/mℓ",0.79
same,"Gene expression level, PR_9 family",PR_9 family; [4],0.9526
same,"Expression of induced resistance gene, Xyloglucan",Xyloglucan,2.36
same,"Expression of induced resistance gene, Xyloglucan",Xyloglucan; [5],17.51
same,"Expression of induced resistance gene, Xyloglucan",Xyloglucan; Spraying,2.36
same,"Gene expression level, Xyloglucan",Xyloglucan; After 1 day,29.86
same,"Gene expression level, Xyloglucan",Xyloglucan; After 7 days,2.81
same,"Gene expression level, Xyloglucan",Xyloglucan; After 14 days,1.06
same,"Gene expression level, Xyloglucan",Xyloglucan; concentration series,37.01
same,"Expression of induced resistance gene, PR_3 family class 4",PR_3 family class 4; 200 µg/mℓ,3.86
same,"Expression of induced resistance gene, PR_3 family class 4",PR_3 family class 4; [3],11.96
same,"Expression of induced resistance gene, PR_3 family class 4","PR_3 family class 4; 200 µg/mℓ, Spraying",3.86
same,"Gene expression level, PR_3 family class 4","PR_3 family class 4; 200 µg/mℓ, After 1 day",11.96
same,"Gene expression level, PR_3 family class 4","PR_3 family class 4; 200 µg/mℓ, After 7 days",7.67
same,"Gene expression level, PR_3 family class 4","PR_3 family class 4; 200 µg/mℓ, After 14 days",0.86
same,"Gene expression level, PR_3 family class 4","PR_3 family class 4; concentration series, 2 µg/mℓ",32.22
same,"Gene expression level, PR_3 family class 4","PR_3 family class 4; concentration series, 20 µg/mℓ",42.52
same,"Gene expression level, PR_3 family class 4",PR_3 family class 4; [4],24.93
same,"Expression of induced resistance gene, Heat shock 70",Heat shock 70; 200 µg/mℓ,1.75
same,"Expression of induced resistance gene, Heat shock 70",Heat shock 70; [3],10.06
same,"Expression of induced resistance gene, Heat shock 70","Heat shock 70; 200 µg/mℓ, Spraying",1.75
same,"Gene expression level, Heat shock 70","Heat shock 70; 200 µg/mℓ, After 1 day",2.27
same,"Gene expression level, Heat shock 70","Heat shock 70; 200 µg/mℓ, After 7 days",0.97
same,"Gene expression level, Heat shock 70","Heat shock 70; 200 µg/mℓ, After 14 days",0.77
same,"Gene expression level, Heat shock 70","Heat shock 70; concentration series, 20 µg/mℓ",23.26
same,"Gene expression level, Heat shock 70",Heat shock 70; [4],53.45
same,"Expression of induced resistance gene, PR_5 family",PR_5 family; 200 µg/mℓ,2.93
same,"Expression of induced resistance gene, PR_5 family",PR_5 family; [3],5.9
same,"Expression of induced resistance gene, PR_5 family","PR_5 family; 200 µg/mℓ, Spraying",2.93
same,"Gene expression level, PR_5 family","PR_5 family; 200 µg/mℓ, After 1 day",5.9
same,"Gene expression level, PR_5 family","PR_5 family; 200 µg/mℓ, After 7 days",0.45
same,"Gene expression level, PR_5 family","PR_5 family; 200 µg/mℓ, After 14 days",0.17
same,"Gene expression level, PR_5 family","PR_5 family; concentration series, 2 µg/mℓ",4
same,"Gene expression level, PR_5 family","PR_5 family; concentration series, 20 µg/mℓ",8.515
same,"Gene expression level, PR_5 family",PR_5 family; [4],2.809
same,"Expression of induced resistance gene, PR_10 family",PR_10 family; 200 µg/mℓ,1.71
same,"Expression of induced resistance gene, PR_10 family",PR_10 family; [3],10.63
same,"Expression of induced resistance gene, PR_10 family","PR_10 family; 200 µg/mℓ, Spraying",1.71
same,"Gene expression level, PR_10 family","PR_10 family; 200 µg/mℓ, After 1 day",8.57
same,"Gene expression level, PR_10 family","PR_10 family; 200 µg/mℓ, After 7 days",0.51
same,"Gene expression level, PR_10 family","PR_10 family; 200 µg/mℓ, After 14 days",0.64
same,"Gene expression level, PR_10 family","PR_10 family; concentration series, 2 µg/mℓ",0.8293
same,"Gene expression level, PR_10 family","PR_10 family; concentration series, 20 µg/mℓ",1.11
same,"Gene expression level, PR_10 family",PR_10 family; [4],1.094
same,Occurrence rate of pine wilt disease: Number of pine trees showing wilt symptoms / Number of pine trees used for the test,[1]; 2 µg/mℓ,1/3
same,Occurrence rate of pine wilt disease: Number of pine trees showing wilt symptoms / Number of pine trees used for the test,[1]; 20 µg/mℓ,1/3
same,Occurrence rate of pine wilt disease: Number of pine trees showing wilt symptoms / Number of pine trees used for the test,[1]; 200 µg/mℓ,0/3
same,Number of pine trees showing wilt symptoms only at growing points of a stem,[1]; 2 µg/mℓ,1
same,Number of pine trees showing wilt symptoms only at growing points of a stem,[1]; 20 µg/mℓ,1
same,expression of induced resistance-related genes is induced overall,[2],≥ 2 times
same,expression of most PR genes was enhanced,[2],≥ 2 times
same,"Gene expression level, Antipeptide",Antipeptide; 2 µg/mℓ,5.816
same,"Gene expression level, Antipeptide",Antipeptide; 20 µg/mℓ,7.111
